From patent US20260077055A1, “COMPOSITIONS OF POLYPLEXES AND SAPONINS” (SAPREME TECHNOLOGIES B.V., priority 2022, published 2026)

System: EGFR+ A431 cells
Test: Cell viability (MTS) after polyplex transfection of A431 cells
Assay type: cell-based
Method: Spectrophotometry: Concentrations were determined using either a Thermo Nanodrop 2000 spectrometer or Perkin Elmer Lambda 365 Spectrophotometer. DLS measurements: DLS measurements were performed on a Malvern Nano ZS (Malvern Instruments, U.K.), operating at 633 nm with a 173° scattering angle, at 25 or 37° C. DLS mean diameters were obtained from the intensity particle size distribution provided by Malvern Zetasizer Software. DLS histograms were obtained from the intensity particle size distributions. Zeta-potential: The zeta-potential values of the polyplexes were obtained by laser doppler anemometry (LDA), measuring the mean electrophoretic mobility (Malvern Zetasizer Nano ZS, Malvern Instruments, U.K.). Measurements were performed in 10 mM HEPES pH 7.1, 150 mM NaCl. TEM measurements: TEM measurements were performed on a JEOL JEM-1011 operated at 100 kV electron microscope, equipped with a camera S5 MegaView G2. A drop of a solution of polyplexes (0.1 mg/mL) was settled on a PELCO® TEM carbon type-B film copper grid and allowed to dry at room temperature for 1 h. Infrared Spectroscopy: FT-IR spectra were recorded on a Bruker Vertex 70v, equipped with a RockSolid interferometer, after preparing the samples (1-2 mg) as KBr pellets. Spectra were processed using OPUS 7.8 software (Bruker). NMR Spectroscopy: 1H NMR spectra were recorded on a 11.7 T Bruker DRX-500 spectrometer. Chemical shifts are reported in ppm (o units) downfield from the HOD residual solvent peak (CD3OD). Experiments were recorded acquiring 64-512 scans, with a pre-scan delay (d1) of 12 s, and an acquisition time (aq) of 4 s at 300 K. 13C NMR spectrum was recorder on a 9.39 T Varian Innova 400 spectrometer. MestReNova 14.2 software (Mestrelab Research) was used for spectra processing. Cell culture conditions and treatments: HEK293FT, A431, A2058, Neuro2A, Hepa1-6 and MDA-MB 468 were maintained in 10% FBS-supplemented DMEM medium (PAN-Biotech GmbH, or Lonza Group, Basel, Switzerland)+Pen/Strep at 37° C. with 5% CO2. […] SO1861-EMCH was conjugated into/onto these polyplexes or co-administrated at 966 or 4000 nM to the different cell lines in vitro (as indicated). For this, cells were seeded in a 96 well plate at 5.000-10.000 c/w in 100 μL/well and incubated overnight at 37° C. Before treatment, the mAb-SO1861 and polyplexes were diluted separately in DPBS (PAN-Biotech GmbH) to 10× the required final concentration. The cells received 80 μL/well fresh media, followed by 20 μL/well polyplex solution and 20 μL/well saponin solution. In particular, before K16-polyplex treatments, K16-polyplexes were formulated in 10 mM HEPES, incubated for 30 min at room temperature and then diluted with complete cell culture medium. The complete cell culture medium was exchanged against 100 μL transfection medium. For co-administration of SO1861-EMCH, the transfection medium was supplemented with 2 μg/mL (=966 nM) SO1861-EMCH. Control transfections were performed with Lipofectamine™ 3000 Transfection Reagent (Thermo Fisher Scientific) according to the manufacturer's instruction, using either […] or 100 ng plasmid and with a media change 4-5 hrs after transfection. […] After treatment, the cells were incubated for 72 hr at 37° C. before the cell viability was determined by a MTS-assay performed according to the manufacturer's instruction (CellTiter 96® AQueous One Solution Cell Proliferation Assay, Promega). […]

CC(=O)OC1C(C)OC(OC2C(C)OC(OC(=O)[C@]34CCC(C)(C)CC3C3=CCC5[C@@]6(C)CC[C@H](OC7OC(C(=O)O)C(O)C(OC8OCC(O)C(O)C8O)C7OC7OC(CO)C(O)C(O)C7O)[C@@](C)(/C=N/NC(=O)CCCCCN7C(=O)C=CC7=O)C6CC[C@@]5(C)[C@]3(C)C[C@H]4O)C(OC3OC(C)C(OC4OCC(O)C(OC5OC(CO)C(O)C(O)C5O)C4O)C(O)C3O)C2O)C(O)C1OC1OCC(O)C(O)C1O (some centres unmarked) [SO1861-EMCH]
cell killing activity / saporin gene delivery, K16C npSaporin polyplexes (K16C alone up to about 5000 μM of plasmids (printed), SO1861-EMCH = free, co-administered with K16C-polyplexes): enhanced cell killing activity
cytoplasmic delivery of npSaporin / cell killing (co-administered with PAMAM G5(PEG-N3)6.2 npSaporin polyplexes, 73 nM Cetuximab-SO1861 or 4 μM SO1861-EMCH, 72 h): strongly enhanced the cytoplasmic delivery of npSaporin
